Source: ChEMBL document CHEMBL1201862, “PubChem BioAssay data set” (2004)
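Results reflect a 48-hour exposure of cells in 96-well plates to compound at five concentrations. At the GI50, growth is halved.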 The source made the active and inactive calls. Cut-off read from the data, not from the text of the source: active = GI50 up to about 1.1 µM and inactive = higher.

How the values were obtained:
Experiment in all cases: inhibition of tumour cell growth, NCI panel, 48 h
[1] = system: NCI-H226
[2] = system: SN12C
[3] = system: HOP-18
[4] = system: NCI-H23
[5] = system: A549
[6] = system: SNB-78
[7] = system: HL-60
[8] = system: A498
[9] = system: DMS-273
[10] = system: OVCAR-8
[11] = system: HCC 2998
[12] = system: CCRF-CEM
[13] = system: SNB-75
[14] = system: RPMI-8226
[15] = system: U-251
[16] = system: SNB-19
[17] = system: SK-MEL-5
[18] = system: SF-539
[19] = system: M19-MEL
[20] = system: UO-31
[21] = system: LOX IMVI
[22] = system: SF-268
[23] = system: HT-29
[24] = system: XF498
[25] = system: K562
[26] = system: UACC-257
[27] = system: KM-20L2
[28] = system: M14
[29] = system: HCT-15
[30] = system: HCT-116
[31] = system: IGROV-1
[32] = system: NCI-H522
[33] = system: 786-0
[34] = system: OVCAR-4
[35] = system: ACHN
[36] = system: SK-OV-3
[37] = system: HOP-92
[38] = system: EKVX
[39] = system: DLD-1
[40] = system: CAKI-1
[41] = system: MOLT-4
[42] = system: SF-295
[43] = system: SR
[44] = system: OVCAR-3
[45] = system: SW-620
[46] = system: RXF 393
[47] = system: LXFL 529
[48] = system: Malme-3M
[49] = system: COLO 205
[50] = system: DMS-114
[51] = system: UACC-62
[52] = system: SK-MEL-28
[53] = system: OVCAR-5
[54] = system: HOP-62
[55] = system: NCI-H460
[56] = system: TK-10
[57] = system: SK-MEL-2
[58] = system: KM12
[59] = system: RXF 631

## O=C(Nc1cccc(O)c1)C(=O)C1C(=O)NC(=S)NC1=O
[1]
  GI50: > 100 µM (inactive)
[2]
  GI50: > 100 µM (inactive)
[3]
  GI50: > 100 µM (inactive)
[4]
  GI50: > 100 µM (inactive)
[5]
  GI50: > 100 µM (inactive)
[6]
  GI50: > 100 µM (inactive)
[7]
  GI50: > 100 µM (inactive)
[8]
  GI50: > 100 µM (inactive)
[9]
  GI50: > 100 µM (inactive)
[10]
  GI50: > 100 µM (inactive)
[11]
  GI50: > 100 µM (inactive)
[12]
  GI50: > 100 µM (inactive)
[13]
  GI50: > 100 µM (inactive)
[14]
  GI50: > 100 µM (inactive)
[15]
  GI50: > 100 µM (inactive)
[16]
  GI50: > 100 µM (inactive)
[17]
  GI50: > 100 µM (inactive)
[18]
  GI50: > 100 µM (inactive)
[19]
  GI50: > 100 µM (inactive)
[20]
  GI50: > 100 µM (inactive)
[21]
  GI50: > 100 µM (inactive)
[22]
  GI50: > 100 µM (inactive)
[23]
  GI50: > 100 µM (inactive)
[24]
  GI50: > 100 µM (inactive)
[25]
  GI50: > 100 µM (inactive)
[26]
  GI50: > 100 µM (inactive)
[27]
  GI50: > 100 µM (inactive)
[28]
  GI50: > 100 µM (inactive)
[29]
  GI50: > 100 µM
[30]
  GI50: > 100 µM (inactive)
[31]
  GI50: > 100 µM (inactive)
[32]
  GI50: > 100 µM (inactive)
[33]
  GI50: > 100 µM (inactive)
[34]
  GI50: > 100 µM (inactive)
[35]
  GI50: > 100 µM (inactive)
[36]
  GI50: > 100 µM (inactive)
[37]
  GI50: > 100 µM (inactive)
[38]
  GI50: > 100 µM (inactive)
[39]
  GI50: > 100 µM (inactive)
[40]
  GI50: > 100 µM (inactive)
[41]
  GI50: > 100 µM (inactive)
[42]
  GI50: > 100 µM (inactive)
[43]
  GI50: > 100 µM (inactive)
[44]
  GI50: > 100 µM (inactive)
[45]
  GI50: > 100 µM (inactive)
[46]
  GI50: > 100 µM (inactive)
[47]
  GI50: > 100 µM (inactive)
[48]
  GI50: > 100 µM (inactive)
[49]
  GI50: > 100 µM (inactive)
[50]
  GI50: > 100 µM (inactive)
[51]
  GI50: > 100 µM (inactive)
[52]
  GI50: > 100 µM (inactive)

## O=C1C2C3CCC(C2C(=O)N1CO)C1C2C(=O)N(CO)C(=O)C2C31 (stereo unspecified)
[1]
  GI50: > 81.7 µM (inactive)
[2]
  GI50: > 47.2 µM (inactive)
[53]
  GI50: > 100 µM (inactive)
[3]
  GI50: 13.7 µM (inactive)
[4]
  GI50: > 87.9 µM (inactive)
[5]
  GI50: 31 µM (inactive)
[6]
  GI50: > 100 µM (inactive)
[7]
  GI50: 12 µM (inactive)
[8]
  GI50: > 100 µM (inactive)
[9]
  GI50: 36.1 µM (inactive)
[10]
  GI50: 32.4 µM (inactive)
[12]
  GI50: 19.1 µM (inactive)
[13]
  GI50: 50.6 µM (inactive)
[14]
  GI50: 21.1 µM (inactive)
[15]
  GI50: > 40.3 µM (inactive)
[16]
  GI50: > 100 µM (inactive)
[17]
  GI50: 43.4 µM (inactive)
[18]
  GI50: 43 µM (inactive)
[19]
  GI50: 1 µM (active)
[20]
  GI50: > 100 µM (inactive)
[21]
  GI50: 37.5 µM (inactive)
[22]
  GI50: > 53.5 µM (inactive)
[23]
  GI50: 58.7 µM (inactive)
[24]
  GI50: > 100 µM (inactive)
[25]
  GI50: 35.2 µM (inactive)
[26]
  GI50: > 100 µM (inactive)
[27]
  GI50: > 52.6 µM (inactive)
[28]
  GI50: > 66.7 µM (inactive)
[54]
  GI50: > 100 µM (inactive)
[29]
  GI50: 26.5 µM
[30]
  GI50: 28.2 µM (inactive)
[31]
  GI50: > 76 µM (inactive)
[32]
  GI50: 65.9 µM (inactive)
[33]
  GI50: 43.3 µM (inactive)
[34]
  GI50: > 43.9 µM (inactive)
[35]
  GI50: > 44.1 µM (inactive)
[36]
  GI50: > 100 µM (inactive)
[37]
  GI50: > 63.1 µM (inactive)
[38]
  GI50: > 100 µM (inactive)
[39]
  GI50: 45.4 µM (inactive)
[40]
  GI50: > 96.6 µM (inactive)
[41]
  GI50: 25.1 µM (inactive)
[42]
  GI50: > 64.9 µM (inactive)
[43]
  GI50: 13.4 µM (inactive)
[44]
  GI50: > 100 µM (inactive)
[45]
  GI50: 26.2 µM (inactive)
[46]
  GI50: > 46.9 µM (inactive)
[55]
  GI50: 22.7 µM (inactive)
[47]
  GI50: 55.3 µM (inactive)
[56]
  GI50: > 100 µM (inactive)
[57]
  GI50: 36 µM (inactive)
[48]
  GI50: > 100 µM (inactive)
[49]
  GI50: 40.4 µM (inactive)
[50]
  GI50: 25.6 µM (inactive)
[51]
  GI50: 53.1 µM (inactive)
[58]
  GI50: > 89.3 µM (inactive)
[52]
  GI50: > 58.9 µM (inactive)

## Cc1cccc(C)c1NC(=O)CCc1nnc(S)[nH]1
[1]
  GI50: > 100 µM (inactive)
[2]
  GI50: > 100 µM (inactive)
[53]
  GI50: > 100 µM (inactive)
[4]
  GI50: > 100 µM (inactive)
[5]
  GI50: > 100 µM (inactive)
[6]
  GI50: > 100 µM (inactive)
[7]
  GI50: > 100 µM (inactive)
[8]
  GI50: > 100 µM (inactive)
[10]
  GI50: > 100 µM (inactive)
[11]
  GI50: > 100 µM (inactive)
[12]
  GI50: > 100 µM (inactive)
[13]
  GI50: > 100 µM (inactive)
[14]
  GI50: > 100 µM (inactive)
[15]
  GI50: > 100 µM (inactive)
[16]
  GI50: > 100 µM (inactive)
[18]
  GI50: > 100 µM (inactive)
[19]
  GI50: > 100 µM (inactive)
[20]
  GI50: > 100 µM (inactive)
[21]
  GI50: > 100 µM (inactive)
[22]
  GI50: > 100 µM (inactive)
[24]
  GI50: > 100 µM (inactive)
[25]
  GI50: > 100 µM (inactive)
[27]
  GI50: > 100 µM (inactive)
[28]
  GI50: > 100 µM (inactive)
[54]
  GI50: > 100 µM (inactive)
[59]
  GI50: > 100 µM (inactive)
[29]
  GI50: > 100 µM
[30]
  GI50: > 100 µM (inactive)
[31]
  GI50: > 100 µM (inactive)
[32]
  GI50: > 100 µM (inactive)
[33]
  GI50: > 100 µM (inactive)
[34]
  GI50: > 100 µM (inactive)
[35]
  GI50: > 100 µM (inactive)
[36]
  GI50: > 100 µM (inactive)
[37]
  GI50: > 100 µM (inactive)
[38]
  GI50: > 100 µM (inactive)
[39]
  GI50: > 100 µM (inactive)
[40]
  GI50: > 100 µM (inactive)
[41]
  GI50: > 100 µM (inactive)
[45]
  GI50: > 100 µM (inactive)
[46]
  GI50: > 100 µM (inactive)
[55]
  GI50: > 100 µM (inactive)
[47]
  GI50: > 100 µM (inactive)
[56]
  GI50: > 100 µM (inactive)
[57]
  GI50: > 100 µM (inactive)
[48]
  GI50: > 100 µM (inactive)
[49]
  GI50: > 100 µM (inactive)
[50]
  GI50: > 100 µM (inactive)
[51]
  GI50: > 100 µM (inactive)
[52]
  GI50: > 100 µM (inactive)

## [N-]=[N+]=N[C@H]1C[C@@H](CO)O[C@H]1n1cnc2c(N)ncnc21
[1]
  GI50: > 100 µM (inactive)
[2]
  GI50: > 100 µM (inactive)
[53]
  GI50: > 100 µM (inactive)
[3]
  GI50: 0.202 µM (active)
[4]
  GI50: > 100 µM (inactive)
[5]
  GI50: > 100 µM (inactive)
[6]
  GI50: > 100 µM (inactive)
[7]
  GI50: > 100 µM (inactive)
[9]
  GI50: > 100 µM (inactive)
[10]
  GI50: > 100 µM (inactive)
[11]
  GI50: > 100 µM (inactive)
[13]
  GI50: > 100 µM (inactive)
[15]
  GI50: > 100 µM (inactive)
[16]
  GI50: > 100 µM (inactive)
[17]
  GI50: > 100 µM (inactive)
[18]
  GI50: > 100 µM (inactive)
[19]
  GI50: > 100 µM (inactive)
[20]
  GI50: > 100 µM (inactive)
[21]
  GI50: > 100 µM (inactive)
[22]
  GI50: > 100 µM (inactive)
[23]
  GI50: > 100 µM (inactive)
[24]
  GI50: 31.2 µM (inactive)
[26]
  GI50: > 100 µM (inactive)
[27]
  GI50: > 100 µM (inactive)
[28]
  GI50: > 100 µM (inactive)
[54]
  GI50: > 100 µM (inactive)
[30]
  GI50: > 100 µM (inactive)
[32]
  GI50: > 100 µM (inactive)
[33]
  GI50: > 100 µM (inactive)
[34]
  GI50: > 100 µM (inactive)
[35]
  GI50: > 100 µM (inactive)
[37]
  GI50: > 100 µM (inactive)
[38]
  GI50: 57.4 µM (inactive)
[39]
  GI50: > 100 µM (inactive)
[40]
  GI50: > 100 µM (inactive)
[42]
  GI50: > 100 µM (inactive)
[44]
  GI50: > 100 µM (inactive)
[45]
  GI50: > 100 µM (inactive)
[55]
  GI50: > 100 µM (inactive)
[47]
  GI50: > 100 µM (inactive)
[56]
  GI50: > 100 µM (inactive)
[57]
  GI50: > 100 µM (inactive)
[48]
  GI50: > 100 µM (inactive)
[49]
  GI50: > 100 µM (inactive)
[50]
  GI50: > 100 µM (inactive)
[58]
  GI50: > 100 µM (inactive)
[52]
  GI50: > 100 µM (inactive)
